Numbered stars: 1 amine (or outer) side, 2 acyl side, 3 side chain; on linkers, the order of the positions; unused ones are H or OH. Square brackets hold non-standard residues; d marks the D form. Side chains are listed from the residue outwards. Peptide text beside a SMILES is read from it. * marks the point of attachment. C18 diacid = O=C(O)CCCCCCCCCCCCCCCCC(=O)*; γGlu = O=C(O)[C@H](CCC(=O)[*:2])N[*:1]; Ac4c = NC1(C(=O)O)CCC1; Aib = CC(C)(N)C(=O)O
What was measured:
[1] = Chemical stability assessment by RP-UPLC; type: physicochemical; details: 333 μM, 8 mM phosphate buffer pH 7.3, 37° C. vs 5° C.
Procedure, shortened: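 Purity loss = (purity after 14 days at 5° C. minus that at 37° C.) relative to the 5° C. value, purity being main-peak area % by RP-UPLC with UV at 215 nm. Samples were 333 μM in 8 mM phosphate, pH 7.3; gradient adjusted for outlying retention times.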

human GLP-1 receptor = target: T1, human GLP-1 receptor (Homo sapiens, UniProt P43220); assay: GLP-1 receptor binding, 125I-GLP-1 displacement SPA on isolated membranes; details: displacement of 125I-GLP-1 from membranes; read-out: IC50 GLP-1R
T1 construct: expressed in transfected cells; host or cells: BHK cells (parent BHKTS13), clone FCW467-12A/KZ10-1, with CRE luciferase
T1 sequence (P43220 24-463): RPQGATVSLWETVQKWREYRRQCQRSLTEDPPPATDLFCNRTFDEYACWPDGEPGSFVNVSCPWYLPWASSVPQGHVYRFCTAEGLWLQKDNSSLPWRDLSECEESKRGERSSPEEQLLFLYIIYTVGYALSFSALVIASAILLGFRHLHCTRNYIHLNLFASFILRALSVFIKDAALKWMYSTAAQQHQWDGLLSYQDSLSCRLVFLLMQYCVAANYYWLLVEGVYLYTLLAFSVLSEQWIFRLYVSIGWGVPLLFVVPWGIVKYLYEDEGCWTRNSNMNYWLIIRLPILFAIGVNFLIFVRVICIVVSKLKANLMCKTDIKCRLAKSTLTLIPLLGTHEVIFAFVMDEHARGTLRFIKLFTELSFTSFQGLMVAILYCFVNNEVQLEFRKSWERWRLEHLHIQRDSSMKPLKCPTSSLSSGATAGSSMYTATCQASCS
Procedure, shortened: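 SPA displacement of 125I-GLP-1(7-36)NH2 from membranes of BHK cells expressing human GLP-1 receptor, with WGA beads, in 50 mM HEPES, 5 mM EGTA, 5 mM MgCl2, 0.005% Tween 20, pH 7.4. Incubated 2 h at 30°C; IC50 by non-linear regression, run at ≤0.001% or 2.0% final serum albumin.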

Purity loss; 14 days at 37° C. [1] [%] | IC50 (human GLP-1 receptor) [nM] | SMILES
4 | 0.3 | CC(C)C[C@H](NC(=O)[C@H](Cc1ccc(O)cc1)NC(=O)[C@H](CCCCN)NC(=O)[C@H](CO)NC(=O)[C@H](CC(C)C)NC(=O)[C@H](CC(=O)O)NC(=O)[C@H](CO)NC(=O)[C@@H](NC(=O)[C@H](Cc1ccccc1)NC(=O)[C@@H](NC(=O)CNC(=O)[C@H](CCC(N)=O)NC(=O)C(C)(C)NC(=O)[C@@H](N)Cc1c[nH]cn1)[C@@H](C)O)[C@@H](C)O)C(=O)N[C@@H](CCC(=O)O)C(=O)N[C@@H](CO)C(=O)N[C@@H](CCCNC(=N)N)C(=O)N[C@@H](CCCNC(=N)N)C(=O)N[C@@H](C)C(=O)N[C@@H](CCCNC(=N)N)C(=O)N[C@@H](CCC(=O)O)C(=O)N[C@@H](Cc1ccccc1)C(=O)N[C@H](C(=O)N[C@@H](CCC(N)=O)C(=O)N[C@@H](Cc1c[nH]c2ccccc12)C(=O)N[C@@H](CC(C)C)C(=O)N[C@@H](CC(C)C)C(=O)N[C@@H](CCCCNC(=O)CC[C@H](NC(=O)CC[C@H](NC(=O)[C@H](CO)NC(=O)[C@H](CCC(=O)O)NC(=O)[C@H](CO)NC(=O)CC[C@H](NC(=O)CC[C@H](NC(=O)CCCCCCCCCCCCCCCCC(=O)O)C(=O)O)C(=O)O)C(=O)O)C(=O)O)C(=O)N[C@H](C(N)=O)[C@@H](C)O)C(C)C [Example 67, N^ε28-[(4S)-4-carboxy-4-[[(4S)-4-carboxy-4-[[(2S)-2-[[(2S)-4-carboxy-2-[[(2S)-2-[[(4S)-4-carboxy-4-[[(4S)-4-carboxy-4-(17-carboxyheptadecanoylamino)butanoyl]amino]butanoyl]amino]-3-hydroxypropanoyl]amino]butanoyl]amino]-3-hydroxypropanoyl]amino]butanoyl]amino]butanoyl]-[Aib2,Leu10,Glu15,Arg20,Glu21,Leu27,Lys28]-Glucagon amide] (H-H[Aib]QGTFTSDLSKYLESRRAREFVQWLLK([γGlu-γGlu-Ser-Glu-Ser-γGlu-γGlu-C18 diacid])T-NH2; N-terminus assumed)
3 | 0.3 | CC(C)C[C@H](NC(=O)[C@H](Cc1ccc(O)cc1)NC(=O)[C@H](CCCCN)NC(=O)[C@H](CO)NC(=O)[C@H](CC(C)C)NC(=O)[C@H](CC(=O)O)NC(=O)[C@H](CO)NC(=O)[C@@H](NC(=O)[C@H](Cc1ccccc1)NC(=O)[C@@H](NC(=O)CNC(=O)[C@H](CCC(N)=O)NC(=O)C1(NC(=O)[C@@H](N)Cc2c[nH]cn2)CCC1)[C@@H](C)O)[C@@H](C)O)C(=O)N[C@@H](CCC(=O)O)C(=O)N[C@@H](CO)C(=O)N[C@@H](CCCCN)C(=O)N[C@@H](CCCNC(=N)N)C(=O)N[C@@H](C)C(=O)N[C@@H](CCCNC(=N)N)C(=O)N[C@@H](CCC(=O)O)C(=O)N[C@@H](Cc1ccccc1)C(=O)N[C@H](C(=O)N[C@@H](CCC(N)=O)C(=O)N[C@@H](Cc1c[nH]c2ccccc12)C(=O)N[C@@H](CC(C)C)C(=O)N[C@@H](CC(C)C)C(=O)N[C@@H](CCCCNC(=O)CC[C@H](NC(=O)CC[C@H](NC(=O)[C@H](CO)NC(=O)[C@H](CCC(=O)O)NC(=O)[C@H](CO)NC(=O)CC[C@H](NC(=O)CC[C@H](NC(=O)CCCCCCCCCCCCCCCCC(=O)O)C(=O)O)C(=O)O)C(=O)O)C(=O)O)C(=O)N[C@H](C(N)=O)[C@@H](C)O)C(C)C [Example 68, N^ε28-[(4S)-4-carboxy-4-[[(4S)-4-carboxy-4-[[(2S)-2-[[(2S)-4-carboxy-2-[[(2S)-2-[[(4S)-4-carboxy-4-[[(4S)-4-carboxy-4-(17-carboxyheptadecanoylamino)butanoyl]amino]butanoyl]amino]-3-hydroxypropanoyl]amino]butanoyl]amino]-3-hydroxypropanoyl]amino]butanoyl]amino]butanoyl]-[Acb2,Leu10,Glu15,Lys17,Arg20,Glu21,Leu27,Lys28]-Glucagon amide] (H-H[Ac4c]QGTFTSDLSKYLESKRAREFVQWLLK([γGlu-γGlu-Ser-Glu-Ser-γGlu-γGlu-C18 diacid])T-NH2; N-terminus assumed)
2 | 0.2 | CC(C)C[C@H](NC(=O)[C@H](Cc1ccc(O)cc1)NC(=O)[C@H](CCCCN)NC(=O)[C@H](CO)NC(=O)[C@H](CC(C)C)NC(=O)[C@H](CC(=O)O)NC(=O)[C@H](CO)NC(=O)[C@@H](NC(=O)[C@H](Cc1ccccc1)NC(=O)[C@@H](NC(=O)CNC(=O)[C@H](CCC(N)=O)NC(=O)C(C)(C)NC(=O)[C@@H](N)Cc1c[nH]cn1)[C@@H](C)O)[C@@H](C)O)C(=O)N[C@@H](CCC(=O)O)C(=O)N[C@@H](CO)C(=O)N[C@@H](CCCCN)C(=O)N[C@@H](CCCNC(=N)N)C(=O)N[C@@H](C)C(=O)N[C@@H](CCCNC(=N)N)C(=O)N[C@@H](CO)C(=O)N[C@@H](Cc1ccccc1)C(=O)N[C@H](C(=O)N[C@@H](CCC(N)=O)C(=O)N[C@@H](Cc1c[nH]c2ccccc12)C(=O)N[C@@H](CC(C)C)C(=O)N[C@@H](CC(C)C)C(=O)N[C@@H](CCCCNC(=O)CC[C@H](NC(=O)CC[C@H](NC(=O)[C@H](CO)NC(=O)[C@H](CCC(=O)O)NC(=O)[C@H](CO)NC(=O)CC[C@H](NC(=O)CC[C@H](NC(=O)CCCCCCCCCCCCCCCCC(=O)O)C(=O)O)C(=O)O)C(=O)O)C(=O)O)C(=O)N[C@H](C(N)=O)[C@@H](C)O)C(C)C [Example 69, N^ε28-[(4S)-4-carboxy-4-[[(4S)-4-carboxy-4-[[(2S)-2-[[(2S)-4-carboxy-2-[[(2S)-2-[[(4S)-4-carboxy-4-[[(4S)-4-carboxy-4-(17-carboxyheptadecanoylamino)butanoyl]amino]butanoyl]amino]-3-hydroxypropanoyl]amino]butanoyl]amino]-3-hydroxypropanoyl]amino]butanoyl]amino]butanoyl]-[Aib2,Leu10,Glu15,Lys17,Arg20,Ser21,Leu27,Lys28]-Glucagon amide] (H-H[Aib]QGTFTSDLSKYLESKRARSFVQWLLK([γGlu-γGlu-Ser-Glu-Ser-γGlu-γGlu-C18 diacid])T-NH2; N-terminus assumed)

Source: US9474790B2, “Stable, protracted GLP-1/glucagon receptor co-agonists for medical use” (Novo Nordisk A/S, priority 2013, dated 2016)
